Counter-ions that a name gives are not always drawn.
How the values were obtained:
[1] = test system: Human peripheral blood mononuclear cells (PBMC); assay: Cytokine induction in human cells (PBMC): IFN-gamma by multiplex bead assay; type: cell-based; details: 21-24 hrs, lowest concentration inducing cytokine at least 2× negative control, tested 0.0001-10 micromolar
Description: (§1) Whole blood was obtained from healthy human donors and collected by venipuncture into vacutainer tubes or syringes containing EDTA. Human peripheral blood mononuclear cells (PBMC) were purified from the whole blood by density gradient centrifugation. Histopaque 1077 (15 mL, Sigma, St. Louis, Mo.) was transferred to 6×50 mL sterile polypropylene conical tubes. The Histopaque was overlayed with 15-25 mL of blood diluted 1:2 in Hank's Balanced Salts Solution (HBSS) (Gibco, Life Technology, Grand Island N.Y.). The tubes were then centrifuged at 1370 rpm for 30 minutes at 20° C., with no brake (400×g, GH 3.8 A Rotor).
(§2) The interface (buffy coat) containing the PBMC was collected and placed in a new sterile 50 mL conical polypropylene centrifuge tube. The PBMC were mixed with an equal volume of HBSS (about 20 mL from the interface and about 20 mL of HBSS), and then centrifuged at 1090 rpm, 10 min, 20° C., with brake (270×g, GH 3.8 A Rotor). After completing centrifugation, the cells were resuspended in 2-3 mL ACK Red blood cell lysis buffer (ammonium chloride potassium solution, Gibco, Life Technology) and incubated for 2-5 minutes at 20° C. […]
(§3) The number of viable cells were determined by counting with a Miltenyi FACS instrument (Miltenyi Biotec Inc., San Diego, Calif.) or by using a hemacytometer. […] Ten microliters of the diluted cells were then applied to the hemacytometer, and the number of viable PBMC were determined by microscopy. […]
(§4) IFN-alpha cytokine levels (pg/mL) were measured by ELISA (human IFN-α, pan specific, Mabtech, Cinncinnati, Ohio), IFN-gamma, TNF-alpha, and IP-10 cytokine levels (pg/mL) were measured by multiplex bead assay (magnetic beads, R & D Systems Minneapolis, Minn.) according to the manufacturer's instructions.
(§5) Specifically, the minimum effective concentration of each compound (micromolar) was determined as the lowest concentration of the compound that induced a measured cytokine response at a level ([…]) that was at least 2× greater than that observed with the negative control wells.

[2] = test system: Human peripheral blood mononuclear cells (PBMC); assay: Cytokine induction in human cells (PBMC): IFN-alpha by ELISA; type: cell-based; details: 21-24 hrs, lowest concentration inducing cytokine at least 2× negative control, tested 0.0001-10 micromolar
Description: as §1, §2, §3, §4, §5

[3] = test system: Human peripheral blood mononuclear cells (PBMC); assay: Cytokine induction in human cells (PBMC): IP-10 by multiplex bead assay; type: cell-based; details: 21-24 hrs, lowest concentration inducing cytokine at least 2× negative control, tested 0.0001-10 micromolar
Description: as §1, §2, §3, §4, §5

[4] = test system: Human peripheral blood mononuclear cells (PBMC); assay: Cytokine induction in human cells (PBMC): TNF-alpha by multiplex bead assay; type: cell-based; details: 21-24 hrs, lowest concentration inducing cytokine at least 2× negative control, tested 0.0001-10 micromolar
Description: as §1, §2, §3, §4, §5

In the case of `CCCCc1nc2c(N)nc3ccccc3c2n1CCCCN/C(=N/C(C)C)NC(C)C` [Example 2, 1-[4-(4-amino-2-butyl-imidazo[4,5-c]quinolin-1-yl)butyl]-2,3-diisopropyl-guanidine Dihydrochloride], the “MEC to Induce Cytokine IFN-gamma” value [1] is reported as 1 µM, the “MEC to Induce Cytokine IFN-alpha” value [2] is reported as 0.1 µM and the “MEC to Induce Cytokine IP-10” value [3] is reported as 0.1 µM. For the same molecule, the “MEC to Induce Cytokine TNF-alpha” value [4] was 10 µM.

For `CC(C)Cn1cnc2c(N)nc3ccccc3c21` [imiquimod, reference compound], the “MEC to Induce Cytokine IFN-gamma” value [1] was 10 µM, the “MEC to Induce Cytokine IFN-alpha” value [2] was 10 µM and the “MEC to Induce Cytokine IP-10” value [3] was 10 µM. The “MEC to Induce Cytokine TNF-alpha” value [4] was 10 µM.

With `CCCCc1nc2c(N)nc3ccccc3c2n1CCCCNC(=N)NC(C)C` [Example 1, 1-[4-(4-amino-2-butyl-imidazo[4,5-c]quinolin-1-yl)butyl]-3-isopropyl-guanidine dihydrochloride] the “MEC to Induce Cytokine IFN-gamma” value [1] was 0.1 µM, the “MEC to Induce Cytokine IFN-alpha” value [2] was 0.01 µM and the “MEC to Induce Cytokine IP-10” value [3] was 0.001 µM. For the same molecule, the “MEC to Induce Cytokine TNF-alpha” value [4] was 0.1 µM.

For `CCCCc1nc2c(N)nc3ccccc3c2n1CCCCN/C(=N/C(C)C)NC(C)C` (as salt: hydrochloride) [Example 2, 1-[4-(4-amino-2-butyl-imidazo[4,5-c]quinolin-1-yl)butyl]-2,3-diisopropyl-guanidine Dihydrochloride], the melting point was 172 to 174 °C.

Molecule `CCCCc1nc2c(N)nc3ccccc3c2n1CCCCNC(=N)NC(C)C` (as salt: hydrochloride) [Example 1, 1-[4-(4-amino-2-butyl-imidazo[4,5-c]quinolin-1-yl)butyl]-3-isopropyl-guanidine dihydrochloride] has a melting point of 210 to 216 °C.
